The results in this text go back to paper PMC7006637, “Design, synthesis and α-glucosidase inhibition study of novel embelin derivatives” (Journal of Enzyme Inhibition and Medicinal Chemistry, 2020).

Assay type in all cases: biochemical, Saccharomyces cerevisiae
Assay [1] deals with α-glucosidase. The assay is described as follows: α-glucosidase inhibition assay (PNPG substrate, OD 405 nm). The following applies: for Inhibition rate: compound at 250 μM, 0.07 U/ml enzyme, 0.5 mM PNPG, pH 6.8, 37 °C; for IC50: more than eight concentrations, GraphPad Prism 7.0; for α-glucosidase inhibitory activity (in words): SAR discussion. On the procedure:
The α-glucosidase inhibitory activity was determined on a Thermo Scientific Multiskan GO Microplate Reader. All compounds were dissolved in DMSO. p-Nitrophenol glucoside (PNPG) as a substrate and α-glucosidase (from Saccharomyces cerevisiae) were used for the bioassay. First, 0.7 U/ml α-glucosidase solution and 1 mmol/L PNPG solution in 0.1 M PBS (pH 6.8) were prepared. Next, 35 µl of 0.1 M PBS (pH 6.8), 10 µl of 0.7 U/ml α-glucosidase solution (final concentration: 0.07 U/ml), and 5 µl of sample solution were added to the 96-well plate. The mixture was pre-incubated for 10 min at 37 °C. Then, 50 µl of 1 mM PNPG (final concentration: 0.5 mM) was rapidly added to initiate the reaction. Then the 96-well plate was quickly transferred into the microplate reader, incubated at 37 °C for 30 min (1 min shake + 9 min incubation, repeated 3 times). After that, 50 µl of 1 M of Na2CO3 solution was added to each well to stop the reaction. The 96-well plate was quickly transferred into the microplate reader and shaken for 30 s. In the blank reference group, 5 µl DMSO replaced the sample solution, other operations were the same. The OD value was measured at 405 nm. The inhibition rate was calculated by Equation (1). (1) Inhibition rate (%) = [(A0−A1)/A0] × 100 where A0 is the OD of the control, and A1 is the OD of the sample. […] The IC50 values were calculated by GraphPad Prism 7.0 software.

For assay [2], the system named is α-glucosidase. In words: Inhibition mechanism: enzyme activity versus enzyme concentration plots. The settings on record: constant PNPG 1 mM; α-glucosidase 0.00-1.05 U/ml. On the procedure:
The inhibition mechanism of 10d, 12d, and 15d was determined by the following method: A series of diluted inhibitor solutions was prepared, at constant PNPG concentration (1 mM). The inhibition rates were measured by the above method with different concentrations of α-glucosidase (0.00, 0.35, 0.7, and 1.05 U/ml). […] Because the chemical structures of compounds 9d and 10d are very similar, compound 10d was selected as a representative in the next mechanism studies. The inhibition mechanism of the selected compounds 10d, 12d, 15d, and embelin on α-glucosidase was investigated using PNPG as the substrate. The relationship between enzyme activity and concentration in the presence of different concentrations of selected compounds was studied. […] Therefore, the inhibition of compounds 10d, 12d, 15d, and embelin against α-glucosidase is reversible.

Assay [3] relates to α-glucosidase. In words: Enzyme kinetic study, Lineweaver–Burk double-reciprocal plots. The settings on record: for Inhibition type: Lineweaver–Burk plots, PNPG 0.2-1 mM, enzyme 0.7 U/ml; for Ki: from plot of slope (Km/Vm) versus inhibitor concentration, PNPG substrate, read-out: Ki value (inhibitor binding with free enzyme). As to the method:
The inhibition type of the enzyme was assayed by Lineweaver–Burk plots. A series of diluted inhibitor solutions was prepared, at constant α-glucosidase concentration (0.7 U/ml). The inhibition rates were measured by the above method with different concentrations of PNPG (1, 0.5, 0.4, 0.3, 0.25, and 0.2 mM). […] The kinetic data were expressed by Lineweaver–Burk double-reciprocal plots. […] Thus, these compounds bind not only with the free α-glucosidase but also with the α-glucosidase-PNPG complex. In other words, they inhibit the function of α-glucosidase by not only directly binding to free enzyme (EI), but also by interfering with the formation of the α-glucosidase-PNPG (ES) intermediate through producing an α-glucosidase-PNPG-inhibitor (ESI) complex in a non-competitive manner. The inhibition constant for the inhibitor binding with free enzyme (Ki) was determined from a plot of the slope (Km/Vm) versus the inhibitor concentration (Figure 6(A2–D2)), and the inhibition constant for the inhibitor binding with enzyme–substrate complex (Kis) was obtained from the vertical intercept (1/Vm) versus the inhibitor concentration (Figure 6(A3–D3))[34]. The results are collected in Table 3: the Kis values of all of them are smaller than their Ki values, which mean that they have higher affinity with the enzyme-substrate complex than with the free enzyme.

SMILES strings stand for the structures.

Usually IC50 stands for the concentration that gives 50% inhibition. Read a low IC50 as greater potency. The Ki is a measure of affinity in units of concentration, obtained from inhibition or displacement. On to `CCCCCCCCCCCC1=C(O)C(=O)C=C(O)C1=O` [Embelin, 2,5-dihydroxy-3-undecyl-1,4-benzoquinone], for which, in the assay with α-glucosidase [1], the Inhibition rate came out at 100% and the half-maximal inhibitory concentration (IC50) was 4.2 µM. The “Inhibition mechanism (reversibility)” value in the assay with α-glucosidase [2] is “reversible”. Further, in the assay on α-glucosidase [3], the Inhibition type entry is “Mixed-type” and the Ki was 3.72 µM.

As to `CCCCCCCCCCCC1=C(OC)C(OC)=CC(=O)C1=O` [Compound 8c], in the assay with α-glucosidase [1], the Inhibition rate worked out at 0.6%.

Consider `COCCCC1=C(O)C(=O)C=C(O)C1=O` [Compound 13d], for which the Inhibition rate with α-glucosidase [1] amounted to 0%.

In the assay with α-glucosidase [1], `CCCCCCCCCCCC1=C(O)C(=O)C=C(OC)C1=O` [Compound 8b] showed an Inhibition rate of 12.0%.

The compound `CCCCCC1=C(O)C(=O)C=C(OC)C1=O` [Compound 5b] yielded an Inhibition rate in the assay on α-glucosidase [1] of 14.9%.

Compound `CCCC1=C(OC)C(=O)C=C(OC)C1=O` [Compound 4a] registered an Inhibition rate in the assay on α-glucosidase [1] of 9.0%.

In turn, `CCCCCCCC1=C(OC)C(OC)=CC(=O)C1=O` [Compound 6c] yielded an Inhibition rate in the assay on α-glucosidase [1] of 16.1%.

As for `CCCCCCCCCCCCCCCC1=C(O)C(=O)C=C(O)C1=O` [Compound 10d], in the assay with α-glucosidase [1], the Inhibition rate is given as 100% and the IC50 is 1.8 µM. The “Inhibition mechanism (reversibility)” value in the assay on α-glucosidase [2] is “reversible”. Also, in the assay with α-glucosidase [3], the Inhibition type result is on record as “Mixed-type” and the Ki stood at 1.24 µM.

For the compound `CCCCCC1=C(O)C(=O)C=C(O)C1=O` [Compound 5d], in the assay with α-glucosidase [1], the “α-glucosidase inhibitory activity (in words)” value is reported as “very low inhibitory effect” and the Inhibition rate came to 19.0%.

Take `CCCCCCCCCCCC1=C(OC)C(=O)C=C(OC)C1=O` [Compound 8a]: the Inhibition rate with α-glucosidase [1] is given as 12.5%.

`COCCCC1=C(O)C(=O)C=C(OC)C1=O` [Compound 13b] gave an Inhibition rate in the assay with α-glucosidase [1] of 0%.

The compound `COC1=CC(=O)C(=O)C(CCC(C)C)=C1OC` [Compound 11c] showed an Inhibition rate in the assay on α-glucosidase [1] of 3.3%.

For the compound `CCCCCCCCCCCCCC1=C(O)C(=O)C=C(O)C1=O` [Compound 9d], in the assay with α-glucosidase [1], the Inhibition rate came out at 100% and the midpoint of inhibition, the IC50, lay at 2.3 µM.

In the assay with α-glucosidase [1], `O=C1C=C(O)C(=O)C(CCCCCCCc2ccccc2)=C1O` [Compound 15d] had an Inhibition rate of 100% and a half-maximal inhibitory concentration (IC50) of 3.6 µM. Moreover, the “Inhibition mechanism (reversibility)” value with α-glucosidase [2] is given as “reversible”. Moreover, in the assay with α-glucosidase [3], the Inhibition type entry is given as “Mixed-type” and the Ki is 2.4 µM.

In the case of `CCCC1=C(O)C(=O)C=C(O)C1=O` [Compound 4d], in the assay with α-glucosidase [1], the “α-glucosidase inhibitory activity (in words)” value was “very low inhibitory effect” and the Inhibition rate worked out at 18.1%.

Consider `CCCCCCCC1=C(OC)C(=O)C=C(OC)C1=O` [Compound 6a], for which the Inhibition rate in the assay on α-glucosidase [1] came to 1.5%.

`O=C1C=C(O)C(=O)C(Cc2ccc3ccccc3c2)=C1O` [Compound 16d]: in the assay with α-glucosidase [1], the Inhibition rate is reported as 81.4% and the IC50 came out at 74.8 µM.

Turning to `COC1=CC(=O)C(OC)=C(Cc2ccc3ccccc3c2)C1=O` [Compound 16a], the Inhibition rate in the assay on α-glucosidase [1] was 6.0%.

Turning to `COCCCC1=C(OC)C(OC)=CC(=O)C1=O` [Compound 13c], the Inhibition rate in the assay with α-glucosidase [1] is 0%.

The compound `COC1=CC(=O)C(O)=C(Cc2ccc3ccccc3c2)C1=O` [Compound 16b] gave an Inhibition rate in the assay with α-glucosidase [1] of 4.3%.

In the assay on α-glucosidase [1], `COC1=CC(=O)C(=O)C(Cc2ccc3ccccc3c2)=C1OC` [Compound 16c] came in with an Inhibition rate of 37.2%.

Take `COC1=CC(=O)C(OC)=C(CCC(C)C)C1=O` [Compound 11a]: the Inhibition rate with α-glucosidase [1] is 1.5%.

The compound `CCCC1=C(OC)C(OC)=CC(=O)C1=O` [Compound 4c] yielded an Inhibition rate in the assay on α-glucosidase [1] of 14.9%.

As to `COC1=CC(=O)C(=O)C(CCC2CCCCC2)=C1OC` [Compound 14c], the Inhibition rate in the assay with α-glucosidase [1] is recorded as 74.7%.

In the assay on α-glucosidase [1], `COCCCC1=C(OC)C(=O)C=C(OC)C1=O` [Compound 13a] showed an Inhibition rate of 0%.

For `CCCCCCCCCC1=C(OC)C(=O)C=C(OC)C1=O` [Compound 7a], the Inhibition rate in the assay with α-glucosidase [1] amounted to 13.5%.

In the assay on α-glucosidase [1], `O=C1C=C(O)C(=O)C(CCC2CCCCC2)=C1O` [Compound 14d] had an Inhibition rate of 85.2% and an IC50 of 45.3 µM.

Take `CC(C)CCC1=C(O)C(=O)C=C(O)C1=O` [Compound 11d]: the Inhibition rate in the assay with α-glucosidase [1] was determined as 37.6%.

Regarding `CCCCCCCCCC1=C(O)C(=O)C=C(OC)C1=O` [Compound 7b], the Inhibition rate with α-glucosidase [1] is given as 20.9%.

The compound `COC1=CC(=O)C(OC)=C(Cc2ccc(-c3ccccc3)cc2)C1=O` [Compound 17a] came in with an Inhibition rate in the assay on α-glucosidase [1] of 5.1%.

As to `COC1=CC(=O)C(O)=C(CCC(C)C)C1=O` [Compound 11b], the Inhibition rate in the assay with α-glucosidase [1] worked out at 2.6%.

`CCCCCCCCCC1=C(OC)C(OC)=CC(=O)C1=O` [Compound 7c] had an Inhibition rate in the assay on α-glucosidase [1] of 33.2%.

As to `CCCCCCCC1=C(O)C(=O)C=C(OC)C1=O` [Compound 6b], the Inhibition rate in the assay with α-glucosidase [1] is listed as 5.4%.

In turn, `CCCC1=C(O)C(=O)C=C(OC)C1=O` [Compound 4b] returned an Inhibition rate with α-glucosidase [1] of 10.4%.

In the assay with α-glucosidase [1], `CCCCCC1=C(OC)C(OC)=CC(=O)C1=O` [Compound 5c] displayed an Inhibition rate of 16.4%.

In the assay on α-glucosidase [1], `CCCCCC1=C(OC)C(=O)C=C(OC)C1=O` [Compound 5a] returned an Inhibition rate of 11.5%.

With `COC1=CC(=O)C(O)=C(CCC2CCCCC2)C1=O` [Compound 14b], the Inhibition rate in the assay with α-glucosidase [1] worked out at 71.1%.

As to `COC1=CC(=O)C(O)=C(Cc2ccc(-c3ccccc3)cc2)C1=O` [Compound 17b], the Inhibition rate in the assay on α-glucosidase [1] is on record as 14.3%.

In the assay with α-glucosidase [1], `CCCCCCCC1=C(O)C(=O)C=C(O)C1=O` [Compound 6d] returned an Inhibition rate of 80.8% and an IC50 of 127 µM.

In turn, `COC1=CC(=O)C(=O)C(Cc2ccc(-c3ccccc3)cc2)=C1OC` [Compound 17c] yielded an Inhibition rate with α-glucosidase [1] of 59.7%.

Take `COC1=CC(=O)C(OC)=C(CCC2CCCCC2)C1=O` [Compound 14a]: in the assay on α-glucosidase [1], the Inhibition rate came out at 70.1%.

In the assay on α-glucosidase [1], `CC(C)CCCC(C)CCC1=C(O)C(=O)C=C(O)C1=O` (centres unmarked) [Compound 12d] had an Inhibition rate of 100% and an IC50 of 3.3 µM. Further, the “Inhibition mechanism (reversibility)” value with α-glucosidase [2] is “reversible”. In the assay on α-glucosidase [3], the Inhibition type entry was “Mixed-type” and the inhibitory constant (Ki) is 3.71 µM.

For `O=C1C=C(O)C(=O)C(Cc2ccc(-c3ccccc3)cc2)=C1O` [Compound 17d], in the assay on α-glucosidase [1], the Inhibition rate was determined as 99.5% and the IC50 was 11.2 µM.

As for `CCCCCCCCCC1=C(O)C(=O)C=C(O)C1=O` [Compound 7d], in the assay on α-glucosidase [1], the Inhibition rate turned out to be 99.4% and the IC50 was determined as 5.7 µM.
